Calls of active or inactive are those of the source. The calls are words filed in the database; no cut-off is given here.
How the values were obtained:
[1] = target: T1, NUAK family SNF1-like kinase 1 (Homo sapiens) (UniProt O60285); assay: Inhibition of NuaK1 Lys2 labeling site in human Huh-7 cells at 1 uM by KiNativ Profiling analysis relative to control; type: cell-based
T1 sequence (whole entry): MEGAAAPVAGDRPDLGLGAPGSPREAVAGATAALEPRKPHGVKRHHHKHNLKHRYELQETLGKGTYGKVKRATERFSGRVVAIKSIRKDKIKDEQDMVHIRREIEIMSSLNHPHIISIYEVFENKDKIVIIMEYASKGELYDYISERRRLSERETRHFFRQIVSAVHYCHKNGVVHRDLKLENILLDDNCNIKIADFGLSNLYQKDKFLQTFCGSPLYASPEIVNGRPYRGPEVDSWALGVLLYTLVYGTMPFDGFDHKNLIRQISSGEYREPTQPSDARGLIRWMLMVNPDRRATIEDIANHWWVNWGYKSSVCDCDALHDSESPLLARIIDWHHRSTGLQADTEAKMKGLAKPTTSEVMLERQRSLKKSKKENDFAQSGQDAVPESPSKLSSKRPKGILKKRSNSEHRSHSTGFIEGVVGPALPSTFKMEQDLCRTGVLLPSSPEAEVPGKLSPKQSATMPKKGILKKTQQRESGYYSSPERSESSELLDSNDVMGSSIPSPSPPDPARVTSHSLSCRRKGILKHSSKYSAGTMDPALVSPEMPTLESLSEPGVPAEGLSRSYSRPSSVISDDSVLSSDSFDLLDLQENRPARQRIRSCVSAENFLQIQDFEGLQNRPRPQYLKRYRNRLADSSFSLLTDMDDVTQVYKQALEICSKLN

[2] = target: Phosphatidylinositol 4-kinase beta (Homo sapiens) (UniProt Q9UBF8); assay: Inhibition of PI4KB ATP labeling site harbouring VPHTQAVVLNSKDKAPYLIYVEVLECENFDTTSVPAR in human Huh-7 cell lysate at 1 uM by KiNativ Profiling analysis relative to control; type: subcellular
Phosphatidylinositol 4-kinase beta (Homo sapiens), sequence (Q9UBF8 2-816 limits assumed): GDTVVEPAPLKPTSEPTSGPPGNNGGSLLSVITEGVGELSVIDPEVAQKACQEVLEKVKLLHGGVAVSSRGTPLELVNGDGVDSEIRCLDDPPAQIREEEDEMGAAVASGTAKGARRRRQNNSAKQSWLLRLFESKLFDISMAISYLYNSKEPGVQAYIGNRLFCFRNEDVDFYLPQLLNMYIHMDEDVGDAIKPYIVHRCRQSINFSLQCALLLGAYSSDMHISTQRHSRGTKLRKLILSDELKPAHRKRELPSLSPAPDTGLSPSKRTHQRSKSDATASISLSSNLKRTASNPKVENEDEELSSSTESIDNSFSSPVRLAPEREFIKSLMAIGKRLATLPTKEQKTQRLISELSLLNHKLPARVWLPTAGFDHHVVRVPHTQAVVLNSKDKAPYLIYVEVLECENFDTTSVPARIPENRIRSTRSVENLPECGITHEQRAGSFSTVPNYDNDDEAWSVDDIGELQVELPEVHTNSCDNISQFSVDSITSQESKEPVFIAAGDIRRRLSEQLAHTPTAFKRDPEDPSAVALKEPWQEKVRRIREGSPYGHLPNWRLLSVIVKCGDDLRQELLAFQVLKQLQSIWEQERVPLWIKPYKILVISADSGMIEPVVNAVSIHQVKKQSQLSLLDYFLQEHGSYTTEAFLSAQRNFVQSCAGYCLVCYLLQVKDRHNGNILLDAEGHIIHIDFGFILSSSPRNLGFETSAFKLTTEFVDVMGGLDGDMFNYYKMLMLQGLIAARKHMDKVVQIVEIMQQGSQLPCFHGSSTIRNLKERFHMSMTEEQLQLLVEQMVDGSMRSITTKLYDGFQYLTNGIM

[3] = target: T2, Inhibitor of nuclear factor kappa-B kinase subunit beta (Homo sapiens) (UniProt O14920); assay: Inhibition of IKKb Lys2 labeling site in human Huh-7 cell lysate at 1 uM by KiNativ Profiling analysis relative to control; type: subcellular
T2 sequence (whole entry): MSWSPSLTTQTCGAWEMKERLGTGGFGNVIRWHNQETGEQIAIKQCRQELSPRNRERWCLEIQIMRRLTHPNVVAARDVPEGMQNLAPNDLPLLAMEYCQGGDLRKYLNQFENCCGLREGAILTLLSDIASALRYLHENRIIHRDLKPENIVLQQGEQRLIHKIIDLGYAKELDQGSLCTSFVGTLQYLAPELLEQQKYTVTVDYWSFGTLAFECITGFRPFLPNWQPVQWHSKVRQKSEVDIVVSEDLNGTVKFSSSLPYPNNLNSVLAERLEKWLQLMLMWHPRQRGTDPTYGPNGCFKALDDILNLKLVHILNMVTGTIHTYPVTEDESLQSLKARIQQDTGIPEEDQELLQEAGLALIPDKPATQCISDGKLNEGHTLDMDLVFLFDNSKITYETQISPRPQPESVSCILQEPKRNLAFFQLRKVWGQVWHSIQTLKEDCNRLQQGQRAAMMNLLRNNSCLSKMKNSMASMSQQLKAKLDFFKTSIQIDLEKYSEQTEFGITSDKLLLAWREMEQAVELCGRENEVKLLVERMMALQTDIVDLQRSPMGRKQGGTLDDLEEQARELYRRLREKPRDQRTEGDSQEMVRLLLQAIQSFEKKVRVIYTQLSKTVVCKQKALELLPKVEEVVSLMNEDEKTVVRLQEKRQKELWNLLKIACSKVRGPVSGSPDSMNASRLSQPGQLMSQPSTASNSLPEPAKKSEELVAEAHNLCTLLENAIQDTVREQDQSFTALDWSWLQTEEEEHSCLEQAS

[4] = target: Interleukin-1 receptor-associated kinase 1 (Homo sapiens) (UniProt P51617); assay: Inhibition of IRAK1 Lys2 labeling site in human A-375 cells at 0.5 uM by KiNativ Profiling analysis relative to control; type: cell-based
Interleukin-1 receptor-associated kinase 1 (Homo sapiens), sequence (P51617 whole entry, looked up): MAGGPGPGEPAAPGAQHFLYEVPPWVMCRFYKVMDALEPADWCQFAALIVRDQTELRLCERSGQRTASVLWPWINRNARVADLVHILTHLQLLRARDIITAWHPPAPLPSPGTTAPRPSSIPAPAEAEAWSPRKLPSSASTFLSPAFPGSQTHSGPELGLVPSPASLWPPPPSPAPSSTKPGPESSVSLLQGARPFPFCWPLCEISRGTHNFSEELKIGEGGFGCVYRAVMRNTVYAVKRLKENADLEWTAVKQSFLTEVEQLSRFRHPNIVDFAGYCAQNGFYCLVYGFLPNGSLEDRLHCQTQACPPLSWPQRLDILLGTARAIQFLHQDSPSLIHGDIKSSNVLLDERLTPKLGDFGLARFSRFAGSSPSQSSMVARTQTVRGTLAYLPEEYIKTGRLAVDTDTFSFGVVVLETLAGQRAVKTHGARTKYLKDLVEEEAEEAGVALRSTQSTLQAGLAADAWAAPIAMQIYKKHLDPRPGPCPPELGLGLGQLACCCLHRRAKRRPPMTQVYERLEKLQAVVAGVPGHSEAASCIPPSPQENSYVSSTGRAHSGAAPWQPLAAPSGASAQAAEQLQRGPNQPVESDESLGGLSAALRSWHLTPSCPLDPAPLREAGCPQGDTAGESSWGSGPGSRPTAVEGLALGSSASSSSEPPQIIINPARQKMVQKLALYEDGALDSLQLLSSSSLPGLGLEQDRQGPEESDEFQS

[5] = target: T3, Serine/threonine-protein kinase LATS1 (Homo sapiens) (UniProt O95835); assay: Inhibition of LATS1 (unknown origin) at 10 uM by Ambit Kinomescan binding assay
T3 sequence (whole entry): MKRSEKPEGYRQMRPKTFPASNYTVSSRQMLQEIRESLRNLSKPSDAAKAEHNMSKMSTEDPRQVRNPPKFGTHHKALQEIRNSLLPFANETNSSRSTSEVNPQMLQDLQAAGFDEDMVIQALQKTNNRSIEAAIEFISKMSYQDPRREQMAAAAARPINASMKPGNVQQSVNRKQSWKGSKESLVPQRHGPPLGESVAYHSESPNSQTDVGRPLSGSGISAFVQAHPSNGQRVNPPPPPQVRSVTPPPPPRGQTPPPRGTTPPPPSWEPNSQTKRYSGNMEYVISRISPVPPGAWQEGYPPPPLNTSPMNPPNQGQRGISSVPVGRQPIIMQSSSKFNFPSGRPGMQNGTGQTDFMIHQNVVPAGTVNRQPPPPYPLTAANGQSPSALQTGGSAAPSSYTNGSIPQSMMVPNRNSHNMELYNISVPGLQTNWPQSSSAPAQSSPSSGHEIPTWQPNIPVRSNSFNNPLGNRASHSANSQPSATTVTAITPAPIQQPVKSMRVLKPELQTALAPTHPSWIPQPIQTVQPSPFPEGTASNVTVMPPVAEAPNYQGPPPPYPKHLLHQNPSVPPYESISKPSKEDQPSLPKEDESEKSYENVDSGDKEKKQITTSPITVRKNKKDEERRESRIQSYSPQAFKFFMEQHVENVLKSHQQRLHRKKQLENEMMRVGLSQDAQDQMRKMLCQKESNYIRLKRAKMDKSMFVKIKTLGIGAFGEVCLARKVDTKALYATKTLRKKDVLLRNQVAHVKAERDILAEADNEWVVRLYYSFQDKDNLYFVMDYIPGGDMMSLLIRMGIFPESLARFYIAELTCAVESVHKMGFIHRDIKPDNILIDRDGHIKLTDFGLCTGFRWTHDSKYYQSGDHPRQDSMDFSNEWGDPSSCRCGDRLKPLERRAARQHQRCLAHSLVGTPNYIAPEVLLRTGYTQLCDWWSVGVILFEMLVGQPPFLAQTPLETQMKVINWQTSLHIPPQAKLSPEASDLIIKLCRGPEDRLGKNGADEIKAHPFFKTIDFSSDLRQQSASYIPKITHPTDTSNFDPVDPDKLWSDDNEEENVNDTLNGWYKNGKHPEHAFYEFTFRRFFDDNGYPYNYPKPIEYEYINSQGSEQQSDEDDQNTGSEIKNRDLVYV

Row | Compound | inhibition [1] [%] | inhibition [2] [%] | inhibition [3] [%] | inhibition [4] [%] | inhibition [5]
1 | CNc1cc(Oc2cc(C(=O)Nc3cc(N4CCN(C)CC4)cc(C(F)(F)F)c3)ccc2C)ncn1 | 20.5 | -1 | -5.1 |  | 
2 | CCN1CCN(Cc2ccc(NC(=O)c3ccc(C)c(Oc4ccnc5[nH]ccc45)c3)cc2C(F)(F)F)CC1 |  |  |  | 2.5 | inactive
